Measured values from publication PMC11396746, “Stability Evaluation and Pharmacokinetic Profiling of Vepdegestrant in Rodents Using Liquid Chromatography–Tandem Mass Spectrometry” (Molecules, 2024).
Read-outs that look alike come from different tables or passages of the source.

Columns and labels:
[1] = Stability of vepdegestrant in mouse plasma under storage conditions (method validation); type: in vitro ADME
Experimental: (§1) The results were within ±15% RE under all storage conditions, including at room temperature for 6 h, after three freeze–thaw cycles, at −20 °C for 4 weeks, and in an autosampler for 24 h after sample preparation.
(§2) Stability was tested for vepdegestrant in biological samples at LQC and HQC under specific conditions: Short-term stability at room temperature for 6 h, three freeze–thaw cycles, long-term stability at −20 °C for 4 weeks, and pretreated samples in an autosampler for 24 h. The stability test was performed via five replicates analysis, with the acceptance criteria being an RE within ±15% at LQC and HQC levels.

[2] = Pharmacokinetic study in male SD rats; type: in vivo; settings: rat
Experimental: Twelve healthy male ICR mice (6 weeks old, 27.5–30.5 g) and 10 healthy male Sprague–Dawley (SD) rats (7 weeks old, 195.5–212.0 g) were acquired from Orient Bio Inc. (Seongnam, Republic of Korea) and used for PK studies. The animals were kept in rooms in a temperature range of 20–25 °C, humidity of 40–60%, and a 12-h light/dark cycle. Before the experiment, mice were fasted for 4 h, whereas rats were fasted for 14 h, with only water provided during the fasting period. After 4 h of drug administration, animals were provided with free access to food and water. All animal experiments were approved by the Institutional Animal Care and Use Committee of the Chungnam National University (202310A-CNU-178; Daejeon, Republic of Korea).
For the PK studies in rats, a vepdegestrant dosing solution was prepared using a combination of DMSO, PEG 400, cremophor EL, and saline (5:40:2.5:52.5, v/v/v/v). The dosages were set at 2 and 5 mg/kg for IV and PO, respectively, consistent with mouse PK studies. The dose volumes were 2 and 5 mL/kg IV and PO, respectively. Blood samples (100 µL) were collected from the jugular vein using heparinized syringes at 0.08 (IV only), 0.25, 0.5, 1, 2, 4, 8, and 24 h post vepdegestrant administration. Blood samples were immediately centrifuged at 12,032 g under 25 °C for 5 min, and plasma aliquots (20 μL) were stored at −20 °C until HPLC-MS/MS analysis.
The collected plasma samples from mice or rats (20 µL) were added with IS (20 µL) and ACN (160 µL). Subsequently, the mixture was vigorously mixed for 10 min and centrifuged at 17,054× g under 25 °C for 10 min. An aliquot of the supernatant (100 μL) was taken, and a volume of 5 μL was injected for HPLC-MS/MS analysis. PK parameters were calculated using Phoenix® 8.3 software (Certara L.P., Princeton, NJ, USA), as described previously.

[3] = Stability in PBS only (control of microsomal stability test, no NADPH and no microsomes); type: physicochemical; settings: PBS (pH 7.4), 1 h incubation
Experimental: (§3) The metabolic stability of vepdegestrant was evaluated using liver microsomes obtained from mice, rats, dogs, and humans. Vepdegestrant was dissolved in DMSO to prepare a stock solution with a concentration of 0.1 mM. Microsomes (25 µL) were spiked into PBS (440 µL) and pre-incubated for 5 min. After pre-incubation, vepdegestrant stock solution (5 µL) was added, followed by an NADPH regenerating system (27 µL) to initiate the reaction. The composition of the reaction mixture was as follows: Vepdegestrant (final concentration 1 µM), mouse, rat, dog, human liver microsomes (protein concentration: 1 mg/mL), NADPH regenerating system (final concentrations: 1.3 mM NADP^+, 3.3 mM glucose-6-phosphate, 0.4 U/mL glucose-6-phosphate dehydrogenase, and 3.3 mM magnesium chloride), and PBS (pH 7.4). At 5, 15, 30, and 60 min after starting the reaction, aliquots (50 µL) were taken and added to ice-cold ACN with an IS (200 µL) to terminate the reaction. For the zero-time samples, aliquots were taken before adding NADPH. Subsequently, the mixture was vigorously mixed for 10 min and centrifuged at 17,054 g under 25 °C for 10 min. For analysis, 5 µL of the supernatant was injected into the HPLC-MS/MS system. In addition, the stability of vepdegestrant in rat liver microsomes was assessed in the absence of NADPH or NADPH and microsomes (PBS only). […]

[4] = Stability of vepdegestrant in rat plasma under storage conditions (method validation); type: in vitro ADME
Experimental: as §1, §2

[5] = Metabolic stability in dog liver microsomes; type: in vitro ADME
Experimental: as §3

[6] = Metabolic stability in human liver microsomes; type: in vitro ADME
Experimental: as §3

[7] = Plasma stability at 4, 25 and 37 °C; type: in vitro ADME; settings: mouse and rat plasma at 4, 25 and 37 °C, 4 h incubation, 0.1 µg/mL
Experimental: Plasma stability of vepdegestrant was investigated in mouse and rat plasma. Vepdegestrant (10 µL) was added to blank mouse or rat plasma (490 µL) to prepare a final concentration of 0.1 µg/mL. The mixtures were incubated at 4, 25, and 37 °C. After 0, 1, and 4 h of incubation, aliquots (50 µL) were added to microtubes containing ice-cold ACN solution with an IS (200 µL) to terminate the reaction. The mixture was vortexed thoroughly for 10 min and centrifuged at 17,054 g under 25 °C for 10 min. Subsequently, the supernatant (100 µL) was taken, and 5 µL was injected for HPLC-MS/MS analysis.

[8] = Metabolic stability in rat liver microsomes; type: in vitro ADME
Experimental: The metabolic stability of vepdegestrant was evaluated using liver microsomes obtained from mice, rats, dogs, and humans. Vepdegestrant was dissolved in DMSO to prepare a stock solution with a concentration of 0.1 mM. Microsomes (25 µL) were spiked into PBS (440 µL) and pre-incubated for 5 min. After pre-incubation, vepdegestrant stock solution (5 µL) was added, followed by an NADPH regenerating system (27 µL) to initiate the reaction. The composition of the reaction mixture was as follows: Vepdegestrant (final concentration 1 µM), mouse, rat, dog, human liver microsomes (protein concentration: 1 mg/mL), NADPH regenerating system (final concentrations: 1.3 mM NADP^+, 3.3 mM glucose-6-phosphate, 0.4 U/mL glucose-6-phosphate dehydrogenase, and 3.3 mM magnesium chloride), and PBS (pH 7.4). At 5, 15, 30, and 60 min after starting the reaction, aliquots (50 µL) were taken and added to ice-cold ACN with an IS (200 µL) to terminate the reaction. For the zero-time samples, aliquots were taken before adding NADPH. Subsequently, the mixture was vigorously mixed for 10 min and centrifuged at 17,054 g under 25 °C for 10 min. For analysis, 5 µL of the supernatant was injected into the HPLC-MS/MS system. In addition, the stability of vepdegestrant in rat liver microsomes was assessed in the absence of NADPH or NADPH and microsomes (PBS only). The experimental procedure was the same as described for the microsomal stability test, except that an equivalent volume of PBS was added instead of NADPH or microsomes.

[9] = 1 month at −20 °C, nominal 3 ng/mL
[10] = 1 month at −20 °C, nominal 900 ng/mL
[11] = 6 h at room temperature (25 °C), nominal 3 ng/mL
[12] = 6 h at room temperature (25 °C), nominal 900 ng/mL
[13] = Freeze–thaw three-cycle (−20 °C → RT), nominal 3 ng/mL
[14] = Freeze–thaw three-cycle (−20 °C → RT), nominal 900 ng/mL
[15] = Processed sample in 10 °C autosampler for 24 h, nominal 3 ng/mL
[16] = Processed sample in 10 °C autosampler for 24 h, nominal 900 ng/mL
[17] = male, Sprague-Dawley, plasma, IV 2 mg/kg
[18] = male, Sprague-Dawley, plasma, PO 5 mg/kg

## O=C1CC[C@H](N2Cc3cc(N4CCN(CC5CCN(c6ccc([C@@H]7c8ccc(O)cc8CC[C@@H]7c7ccccc7)cc6)CC5)CC4)ccc3C2=O)C(=O)N1 [vepdegestrant, Vepdegestrant]
[1]; [9]
  Stability in Mouse Plasma: 103.1 ± 5.4%
[1]; [10]
  Stability in Mouse Plasma: 107.7 ± 4.0%
[1]; [11]
  Stability in Mouse Plasma: 97.70 ± 4.12%
[1]; [12]
  Stability in Mouse Plasma: 110.7 ± 2.8%
[1]; [13]
  Stability in Mouse Plasma: 99.78 ± 1.60%
[1]; [14]
  Stability in Mouse Plasma: 103.3 ± 4.1%
[1]; [15]
  Stability in Mouse Plasma: 104.0 ± 7.2%
[1]; [16]
  Stability in Mouse Plasma: 98.49 ± 8.79%
[2]; [17]
  Cmax: 850 ± 95 ng/mL
  MRT: 4.14 ± 0.348 h
  Tmax: 0.083 h
  clearance: 17.6 mL/min/kg
  half-life: 3.97 ± 0.284 h
[2]; [18]
  Cmax: 108 ± 38 ng/mL
  MRT: 6.54 ± 0.965 h
  Tmax: 3.2 ± 2.95 h
  half-life: 4.07 ± 0.418 h
[2]; male, Sprague-Dawley, plasma, PO 5 mg/kg vs IV 2 mg/kg, read-out: BA (oral bioavailability)
  bioavailability: 24.1 ± 9.39%
[2]; male, Sprague-Dawley, plasma, intravenous, 2 mg/kg, read-out: volume of distribution
  Vd: > 1 L/kg
[2]; male, Sprague-Dawley, plasma, iv, 2 mg/kg, IV 2 mg/kg, read-out: Vss
  Vd: 4.43 ± 0.3 L/kg
[2]; IV 2 mg/kg
  AUCinf: 1900 ± 90 ng·h/mL
  AUClast: 1880 ± 84 ng·h/mL
[2]; IV 2 mg/kg, 2 mg/kg
  Vss: 4.354 ± 0.3 L/kg
[2]; PO 5 mg/kg
  AUCinf: 1150 ± 446 ng·h/mL
  AUClast: 1120 ± 428 ng·h/mL
[2]; liver blood flow 3.3 L/h/kg
  clearance as % of liver blood flow: approximately 31.9%
[3]
  vepdegestrant remaining: 10.2%
[4]; [9]
  Stability in Rat Plasma: 98.83 ± 12.58%
[4]; [10]
  Stability in Rat Plasma: 104.3 ± 8.5%
[4]; [11]
  Stability in Rat Plasma: 100.3 ± 7.1%
[4]; [12]
  Stability in Rat Plasma: 99.59 ± 4.12%
[4]; [13]
  Stability in Rat Plasma: 98.70 ± 7.09%
[4]; [14]
  Stability in Rat Plasma: 94.98 ± 1.40%
[4]; [15]
  Stability in Rat Plasma: 99.86 ± 0.84%
[4]; [16]
  Stability in Rat Plasma: 92.18 ± 6.32%
[5]; 60 min, 1 μM, with NADPH
  remaining percentage of unconverted vepdegestrant: 97.1%
[5]; beagle, liver microsomes, pH 7.4
  half-life at 1 µM: 9.85 h
[6]; 60 min, 1 μM, with NADPH
  remaining percentage of unconverted vepdegestrant: 98.3%
[6]; liver microsomes, pH 7.4
  half-life at 1 µM: 13.4 h
[7]
  vepdegestrant remaining in plasma: 86.3–113.5%
[8]; Sprague-Dawley, liver microsomes, pH 7.4, rat microsomes, 1 μM
  half-life at 1 µM: 0.615 h
[8]; rat microsomes in the absence of NADPH, 1 h incubation
  vepdegestrant remaining: 86.6%
[8]; rat microsomes, 60 min, 1 μM, with NADPH
  remaining percentage of unconverted vepdegestrant: 32.2%
